# How the values were obtained:
# [1] = In vitro drug release from silicone tube devices loaded with solid lidocaine tablets (diffusion through the wall of the drug reservoir); format: physicochemical; conditions: silicone tube ID about 0.060 in, OD 0.076 in, length about 3 cm, payload about 60 mg, no aperture; in vitro in water at about 37° C.
# Protocol: A study was performed to determine the feasibility of delivering drug through the wall of a drug reservoir via diffusion. Devices were formed form silicone tubes having an inner diameter of about 0.060 inches, an outer diameter of 0.076 inches, and a length of about 3 cm. The devices were loaded with solid drug tablets of lidocaine, for a total payload of about 60 mg. Some of the devices included an aperture formed through the tube wall, the aperture having a diameter of 150 μm. These devices were loaded with solid tablets of either lidocaine hydrochloride monohydrate or a combination of lidocaine hydrochloride monohydrate and lidocaine base. […] The devices were tested in vitro in water at about 37° C.
# [2] = In vitro drug release from silicone tube devices loaded with lidocaine base tablets, with varying numbers of apertures; format: physicochemical; conditions: silicone tubes about 3 cm, payload about 60 mg, in vitro in water at about 37° C.
# Protocol: Another study was performed to investigate the feasibility of delivering drug from a device through both a wall of a drug reservoir and from an aperture in the wall of the drug reservoir. Devices were formed form silicone tubes having a length of about 3 cm. The devices were loaded with solid drug tablets of lidocaine base, for a total payload of about 60 mg. […] The devices were tested in vitro in water at about 37° C.
compound,measurement,setting,value
"CCN(CC)CC(=O)Nc1c(C)cccc1C [lidocaine base, lidocaine]",delivery of drug via diffusion through the silicone wall of the drug reservoir,[1],feasible to deliver drug via diffusion through a silicone wall without an aperture
same,release from silicone tube without apertures,[2]; no apertures (ID 0.060/OD 0.076 in and ID 0.062/OD 0.095 in),can be released from a silicone tube without any apertures
same,effect of apertures on release rate,"[2]; 0, 1 (150 μm), 2, 30 or 60 (360 μm) apertures",release rate can be increased by adding apertures to the device
